In patent US20080085859A1, “Drug Promoting Ceramide Transport, Base Sequence for Producing the Drug, Method of Measuring Activity of Promoting Ceramide Release and Method of Measuring Activity of Promoting Intermembrane Ceramide Transfer” (JAPAN SCIENCE AND TECHNOLOGY AGENCY, priority 2003, published 2008):

B1: FL-hCERT: hCERT with FL (FLAG) sequence added to amino end (protein, UniProt Q9Y5P4 1-624, looked up)
Ceramide transfer protein: MSDNQSWNSSGSEEDPETESGPPVERCGVLSKWTNYIHGWQDRWVVLKNNALSYYKSEDETEYGCRGSICLSKAVITPHDFDECRFDISVNDSVWYLRAQDPDHRQQWIDAIEQHKTESGYGSESSLRRHGSMVSLVSGASGYSATSTSSFKKGHSLREKLAEMETFRDILCRQVDTLQKYFDACADAVSKDELQRDKVVEDDEDDFPTTRSDGDFLHSTNGNKEKLFPHVTPKGINGIDFKGEAITFKATTAGILATLSHCIELMVKREDSWQKRLDKETEKKRRTEEAYKNAMTELKKKSHFGGPDYEEGPNSLINEEEFFDAVEAALDRQDKIEEQSQSEKVRLHWPTSLPSGDAFSSVGTHRFVQKPYSRSSSMSSIDLVSASDDVHRFSSQVEEMVQNHMTYSLQDVGGDANWQLVVEEGEMKVYRREVEENGIVLDPLKATHAVKGVTGHEVCNYFWNVDVRNDWETTIENFHVVETLADNAIIIYQTHKRVWPASQRDVLYLSVIRKIPALTENDPETWIVCNFSVDHDSAPLNNRCVRAKINVAMICQTLVSPPEGNQEISRDNILCKITYVANVNPGGWAPASVLRAVAKREYPKFLKRFTSYVQEKTAGKPILF
modifications: N-terminal FLAG tag

What was measured:
Assay type in all cases: cell-based, Chinese hamster
[1] = tested on: CHO-K1 cell; experiment: influence of ceramide transport inhibitor on SM synthesis, [14C] serine labeling; settings: 1 μM, FIG. 8
Protocol: (§1) CHO-K1 cell, LY-A2 cell, and LY-A2/hCERT cell were inoculated at the cell density of 1.0×10^6 per culture dish having the 60-mm diameter, and cultured at 33° C. overnight. Subsequently, it was exchanged with […] of Nutridoma medium, after [^14C] serine (0.75 μCi) or [^14C] choline (1.0 μCi) have been added, in the case where [^14C] serine is added, it was cultured for 2 hours, and in the case where [^14C] choline is added, it was cultured at 33° C. for 5 hours. However, in the case where the influence on (1R, 3R) HPA-12 is analyzed, after it was pretreated at […] for 15 minutes in 1.5 mL of Nutridoma medium to which 1 μM of (1R,3R) HPA-12 has been added (in control experiment, dimethylsulfoxide used for dissolving a drug was added at the concentration corresponding to 0.01% of the final concentration), [^14C] serine was added, and cultured at 33° C. for 2 hours. After the cell was washed twice in 2 mL of cooled PBS, dissolved in 900 μL of sodium dodecyl sulfate (SDS), then, 800 μL and 20 μL of dissolved matter were used for determining lipid extraction and protein concentration. For the purpose of analyzing lipid labeled with [^14C] serine, the lipid was separated by TLC by making acetic methyl/n-propanol/chloroform/methanol/0.25% KCl (25:25:25 10:9, volume ratio) development solvent. The radioactive lipid separated on the plate was detected and analyzed by an image analyzer.
(§2) The present inventors have already found a selective inhibitor with respect to ATP dependent ceramide transport pathway (J. Biol. Chem. 276,43994-44002, 2001). For the purpose of examining whether or not ceramide transport pathway recovered by introducing hCERT is a transport pathway which is sensitive to (1R,3R) HPA-12, the analysis of the influence of (1R, 3R) HPA-12 treatment with respect to SM biosynthesis was performed by performing a lipid metabolism labeling experiment using radioactive serine.

[2] = tested on: LY-A2 cell; experiment: as above; settings: FIG. 8
Protocol: as §1, §2

[3] = tested on: LY-A2 cell; experiment: MCD resistance by counting the number of survived cells; settings: LY-A2 cell infected with expressing retrovirus, FIGS. 10(A), 12(A)
Protocol: The method of selecting function recovery strain used herein was performed on the basis of the knowledge that a cell whose SM content has been reduced becomes highly sensitive to cholesterol drawing reagent/methylcyclodextrin (MCD), and the cell whose SM content has been recovered recovers the resistance to MCD. As described in the foregoing paragraph, after the infected cell that has been seeded and cultured at 33° C. overnight was washed twice in 10 mL of serum-free F12 medium, it has been at 37° C. for one hour in 25 mL. After the culture dish was washed three times with 12 mL of PBS, 25 mL of F12/NBS was added and cultured at 33° C. for 7 to 10 days. […]
It has been validated whether or not CERT protein and CERTL which is a large separate splicing type product having 26 amino acid residue complements the deletion of LY-A cell. […] The MCD resistance of the obtained (LY-A2+FL-hCERT) cell and ((LY-A2+FL-hCERTL) cell were measured by counting the number of survived cells in accordance with the method described in <Method of selecting MCD resistance recovery strain>. Moreover, the MCD resistance of (LY-A2+empty vector) cell, CHO-K1 cell and LY-A2 cell obtained by infecting LY-A2 cell using pLIB vector in which gene has not been inserted were also similarly measured. The results are indicated in FIG. 10(A). […]

Row | Molecule | inhibition of SM synthesis [1] | inhibition of SM synthesis ([2]; 1 μM, cell printed as LY-A2 cell (first sentence of b175)) | additional inhibition of SM biosynthesis ([2]; LY-A2 cell where HPA-12-sensitive pathway is impaired) | MCD resistance [3]
1 | CCCCCCCCCCCC(=O)N[C@@H](CO)C[C@@H](O)c1ccccc1 [(1R,3R) HPA-12, (1R,3R)N-(3-hydroxy-1-hydroxymethyl-3-phenyprol) dodecane amide] | significantly inhibited | significantly inhibited | another additional inhibition was not seen | 
2 | B1 |  |  |  | significantly acquired the MCD resistance
